Data published in the supplement of paper PMC10307832.

What was measured:
Experiment in all cases: relative viability (nuclei count vs DMSO), 5 days (fraction); higher = more cells survive
Imatinib + Bortezomib = compound: Cc1ccc(NC(=O)c2ccc(CN3CCN(C)CC3)cc2)cc1Nc1nccc(-c2cccnc2)n1 [Imatinib] + CC(C)C[C@H](NC(=O)[C@H](Cc1ccccc1)NC(=O)c1cnccn1)B(O)O [Bortezomib] (partner 0.002 µM)
Outline: (§1)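 Relative viability divides the nuclei count in treated wells by that in vehicle wells. Lung cancer cell lines were seeded in 1536-well plates, dosed by pin tool the next day, and fixed and stained after 5 days in one step with final 0.05% Triton X-100, 1% formaldehyde and 1 ug/ml Hoechst. Dosing was a single drug or a fixed anchor-drug dose plus five library-drug doses (not always all listed) in √10 steps, and values are medians of duplicate plates imaged at 4×.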

Imatinib + Lapatinib = compound: Cc1ccc(NC(=O)c2ccc(CN3CCN(C)CC3)cc2)cc1Nc1nccc(-c2cccnc2)n1 [Imatinib] + CS(=O)(=O)CCNCc1ccc(-c2ccc3ncnc(Nc4ccc(OCc5cccc(F)c5)c(Cl)c4)c3c2)o1 [Lapatinib] (partner 2 µM)
Outline: as §1

Imatinib + Pictilisib = compound: Cc1ccc(NC(=O)c2ccc(CN3CCN(C)CC3)cc2)cc1Nc1nccc(-c2cccnc2)n1 [Imatinib] + CS(=O)(=O)N1CCN(Cc2cc3nc(-c4cccc5[nH]ncc45)nc(N4CCOCC4)c3s2)CC1 [Pictilisib] (partner 1 µM)
Outline: as §1

Imatinib + Crizotinib = compound: Cc1ccc(NC(=O)c2ccc(CN3CCN(C)CC3)cc2)cc1Nc1nccc(-c2cccnc2)n1 [Imatinib] + C[C@@H](Oc1cc(-c2cnn(C3CCNCC3)c2)cnc1N)c1c(Cl)ccc(F)c1Cl [Crizotinib] (partner 1 µM)
Outline: as §1

Cell Line | relative viability (Imatinib + Bortezomib; first compound 0.02 µM) | relative viability (Imatinib + Bortezomib; first compound 0.06325 µM) | relative viability (Imatinib + Bortezomib; first compound 0.2 µM) | relative viability (Imatinib + Bortezomib; first compound 0.6325 µM) | relative viability (Imatinib + Bortezomib; first compound 2 µM) | relative viability (Imatinib + Lapatinib; first compound 0.02 µM) | relative viability (Imatinib + Lapatinib; first compound 0.06325 µM) | relative viability (Imatinib + Lapatinib; first compound 0.6325 µM) | relative viability (Imatinib + Lapatinib; first compound 2 µM) | relative viability (Imatinib + Pictilisib; first compound 0.02 µM) | relative viability (Imatinib + Pictilisib; first compound 0.06325 µM) | relative viability (Imatinib + Pictilisib; first compound 0.2 µM) | relative viability (Imatinib + Pictilisib; first compound 0.6325 µM) | relative viability (Imatinib + Pictilisib; first compound 2 µM) | relative viability (Imatinib + Crizotinib; first compound 0.02 µM) | relative viability (Imatinib + Crizotinib; first compound 0.06325 µM) | relative viability (Imatinib + Crizotinib; first compound 0.2 µM) | relative viability (Imatinib + Crizotinib; first compound 0.6325 µM) | relative viability (Imatinib + Crizotinib; first compound 2 µM) | relative viability (Imatinib + Lapatinib; first compound 0.2 µM)
HCC-44 | 1.04 | 0.945 | 0.979 | 0.896 | 0.813 | 1.13 | 1.15 | 0.991 | 0.934 | 0.604 | 0.653 | 0.974 | 0.548 | 0.529 | 0.921 | 0.841 | 0.911 | 0.841 | 0.712 | –
HCC-78 | 0.33 | 0.34 | 0.599 | 0.358 | 0.479 | 0.924 | 0.467 | – | 1.04 | 0.208 | 0.177 | 0.198 | 0.207 | 0.2 | 0.334 | 0.344 | 0.36 | 0.314 | 0.322 | 0.676
HCC-366 | 1.46 | – | 1.5 | 1.07 | 0.929 | 1.3 | – | 1.03 | 1.04 | 0.131 | 0.119 | 0.19 | 0.144 | 0.223 | 1.19 | – | 0.777 | 0.334 | 0.399 | 1.33
HCC-827 | – | 1 | 1.04 | 1.02 | – | 0.206 | 0.162 | 0.179 | 0.191 | 0.817 | 0.942 | 1.1 | 0.926 | 0.952 | 0.954 | 0.889 | 0.91 | – | 0.973 | 0.211
HOP-62 | 1.14 | – | 1.19 | 0.732 | 0.598 | 1.03 | – | 0.935 | 0.991 | 0.775 | – | 0.822 | 0.569 | 0.958 | 0.87 | – | 0.984 | 1.06 | 1 | 0.999
LC-2-ad | 1.16 | 0.658 | 1.18 | 0.985 | 0.929 | 0.933 | 0.886 | 1.02 | 0.935 | 0.379 | 0.492 | 0.573 | 0.429 | 0.43 | 0.458 | – | 0.502 | 0.434 | 0.384 | 0.884
LCLC-97TM1 | 0.552 | – | – | 0.741 | 0.524 | – | – | 0.878 | 0.734 | – | – | 0.18 | 0.225 | 0.164 | – | – | 0.358 | 0.34 | 0.407 | 0.958
LCLC-103H | 1.08 | – | – | 1.13 | – | – | – | – | – | 0.67 | – | 0.692 | 0.578 | – | 1.16 | – | – | 0.937 | – | –
LK-2 | – | – | – | – | – | 1.02 | 0.625 | 0.486 | 0.967 | 0.639 | – | 0.581 | 0.488 | 0.572 | 0.213 | – | 0.224 | 0.236 | 0.179 | 1.11
NCI-H358 | – | – | – | – | – | 0.478 | – | 0.448 | 0.392 | 0.292 | – | 0.326 | 0.275 | 0.347 | 0.616 | – | 0.571 | 0.555 | 0.616 | 0.445
NCI-H441 | 1.12 | 0.616 | 0.543 | 0.439 | 0.435 | – | – | – | – | 0.501 | 0.437 | 0.578 | 0.502 | 0.435 | 0.659 | 0.796 | 0.796 | 0.879 | 0.737 | –
NCI-H838 | 1.04 | 0.823 | 0.947 | 1 | 0.886 | – | – | – | – | 0.447 | 0.55 | 0.519 | 0.465 | 0.499 | 0.956 | 1.25 | – | 0.736 | 0.931 | –
NCI-H1299 | 1.05 | 1.01 | 0.98 | 1.03 | 1.03 | 0.999 | 1 | 0.956 | 0.988 | 0.868 | 1.07 | 0.833 | 0.954 | 0.776 | – | – | – | – | – | 0.988
NCI-H1395 | – | – | – | – | – | 0.956 | – | 0.988 | 1.19 | 0.622 | – | 0.6 | 0.651 | 0.605 | – | – | – | – | – | –
NCI-H1793 | – | – | – | – | – | 0.841 | – | 0.647 | 0.831 | 0.272 | – | 0.332 | 0.412 | 0.413 | – | – | – | – | – | 0.536
NCI-H1944 | – | – | – | – | – | 0.8 | – | 0.853 | 0.771 | 0.353 | – | 0.368 | 0.324 | 0.335 | 1.24 | – | – | 0.935 | – | 0.991
NCI-H2023 | 1.08 | 0.425 | 1.16 | 0.925 | 1.02 | – | – | – | – | 0.247 | 0.191 | 0.224 | 0.213 | 0.217 | 0.61 | 0.708 | 0.715 | 0.616 | 0.706 | –
NCI-H2170 | – | – | – | – | – | 0.266 | 0.28 | 0.263 | 0.245 | 0.292 | 0.334 | 0.283 | 0.254 | 0.26 | 1.5 | 1.49 | 1.52 | 1.3 | 1.22 | 0.282
SK-MES-1 | – | – | – | – | – | 0.496 | 0.512 | 0.471 | 0.494 | 0.366 | 0.323 | 0.39 | 0.357 | 0.379 | 1.08 | 0.999 | 1.16 | 1.05 | 0.971 | 0.505
